Data published in patent US20260297128A1, “PEPTOID COMPOSITIONS TARGETING RAS PROTEINS AND METHODS OF TREATMENT OF CANCER USING THE SAME” (University of Houston System, priority 2023, published 2026).
Non-standard residues stand in square brackets, D forms with d. Residues, ends and D or L forms follow the SMILES beside them. *: point of attachment. X2 = COc1ccc(CN(CC(=O)N(CCCOC(C)C)CC(=O)*)C(=O)CCC(=O)c2cccs2)cc1; N(4-MeOBn)Gly = COc1ccc(CNCC(=O)O)cc1; N((CH2)3OiPr)Gly = CC(C)OCCCNCC(=O)O; Stearoyl = CCCCCCCCCCCCCCCCCC(=O)*; Palmitoyl = CCCCCCCCCCCCCCCC(=O)*; Myristoyl = CCCCCCCCCCCCCC(=O)*; Gly(N-cHex) = O=C(O)CNC1CCCCC1; X1 = O=C(CCC(=O)*)c1cccs1; Nlys = NCCCCNCC(=O)O; Nme = COCCNCC(=O)O

How the values were obtained:
H441 cells [1] = test: MTS cell viability assay; type: cell-based; conditions: H441 (KRASG12V); vs PKR1
Text: Three cancer cell lines (H441, H358, and H1993) harboring KRAS G12V, KRAS G12C, and WT KRAS, respectively, were subjected to treatment with the fatty acid conjugated-PKR1. […] FIGS. 6A-6C are graphical representations of the effects of the fatty acid conjugated PKR1 derivatives on cell survival and proliferation of (A) H441, (B) H358, and (C) H1993 cell lines. FIG. 6D presents the IC50 values of fatty acid conjugated PKR1 derivatives in H441, H1993, and H358 cell lines. […] As KRAS is predominant in the membrane consisting of unsaturated fatty acids, conjugating unsaturated fatty acids to PKR1 can facilitate its anchoring onto the membrane, thereby improving efficacy.
To examine the capacity of PKR1 derivatives as broad-spectrum KRAS inhibitors, MTS assays were conducted in various types of cell lines representing different cancer types, KRAS mutations, and KRAS gene zygosity (Table 1). IC50 values for each cell line were obtained from the MTS assay with PKR1-C16 treatment.

H441 cells [2] = test: Cell viability, single and combination treatment with MEK/ERK inhibitors; type: cell-based; conditions: Homo sapiens, NCI-H441; single treatment, 3 D incubation; heterozygous KRAS G12V
Text: Provided herein are pan-KRAS inhibitors that can enhance the sensitivity of heterozygous KRAS mutant cells to KRAS downstream inhibitors, thereby overcoming limitations in their use for cancer therapy. FIG. 11A is an illustration presenting that heterozygous KRAS mutant cells are resistant to the inhibition of KRAS downstream signaling while homozygous KRAS mutant cells are sensitive to such inhibition, therefore blocking wild type KRAS potentially re-sensitizes the heterozygous KRAS mutant cells to the inhibition of KRAS downstream signaling. Cell viability of H441 cells harboring heterozygous KRAS G12V were assessed in combination treatment with PKR1-C16. FIG. 11B is a graphical representation presenting the cell viability of H441 harboring heterozygous KRAS G12V with co-treatments of Trametinib (upper panel) and Ulixertinib with PKR1-C16 (lower panel). […] Concentration gradients of Trametinib and Ulixertinib were co-treated with 1, 3, 5, and 7 μM of PKR1-C16, respectively. […] Blocking WT KRAS enables the re-sensitization of heterozygous KRAS mutant cells to the inhibitors of KRAS downstream signaling.

H2122 cells = conditions: homozygous KRAS G12C (H2122) vs heterozygous KRAS G12C (H23); cited from earlier work

| IC50 (H441 cells [2]) | SMILES | increase in potency (H441 cells [1]) | potency in H2122 compared with H23 cells (H2122 cells) |
| --- | --- | --- | --- |
| – | CCCCCCCCCCCCCCCCCC(=O)NCCCC[C@H](NC(=O)[C@H](C)NC(=O)CN(CCOC)C(=O)CN(CCCCN)C(=O)CN(CCCCN)C(=O)CN(C(=O)CN(CCCOC(C)C)C(=O)[C@H](CCCCNC(=O)CN(CCCOC(C)C)C(=O)CN(Cc1ccc(OC)cc1)C(=O)CCC(=O)c1cccs1)NC(=O)CN(CCCOC(C)C)C(=O)CN(Cc1ccc(OC)cc1)C(=O)CCC(=O)c1cccs1)C1CCCCC1)C(N)=O [PKR1-C18] (X1-[N(4-MeOBn)Gly][N((CH2)3OiPr)Gly]K(X2)[N((CH2)3OiPr)Gly][Gly(N-cHex)][Nlys][Nlys][Nme]AK(Stearoyl)-NH2) | over 25 fold | – |
| – | CCCCCCCCCCCCCCCC(=O)NCCCC[C@H](NC(=O)[C@H](C)NC(=O)CN(CCOC)C(=O)CN(CCCCN)C(=O)CN(CCCCN)C(=O)CN(C(=O)CN(CCCOC(C)C)C(=O)[C@H](CCCCNC(=O)CN(CCCOC(C)C)C(=O)CN(Cc1ccc(OC)cc1)C(=O)CCC(=O)c1cccs1)NC(=O)CN(CCCOC(C)C)C(=O)CN(Cc1ccc(OC)cc1)C(=O)CCC(=O)c1cccs1)C1CCCCC1)C(N)=O [PKR1-C16] (X1-[N(4-MeOBn)Gly][N((CH2)3OiPr)Gly]K(X2)[N((CH2)3OiPr)Gly][Gly(N-cHex)][Nlys][Nlys][Nme]AK(Palmitoyl)-NH2) | over 25 fold | – |
| 17 µM | CC(C)Nc1cc(-c2c[nH]c(C(=O)N[C@H](CO)c3cccc(Cl)c3)c2)c(Cl)cn1 [Ulixertinib, ulixertinib] | – | higher potency in H2122 cells |
| 10.4 µM | CC(=O)Nc1cccc(-n2c(=O)n(C3CC3)c(=O)c3c(Nc4ccc(I)cc4F)n(C)c(=O)c(C)c32)c1 [Trametinib, trametinib] | – | higher potency in H2122 cells |
| – | CCCCCCCCCCCCCC(=O)NCCCC[C@H](NC(=O)[C@H](C)NC(=O)CN(CCOC)C(=O)CN(CCCCN)C(=O)CN(CCCCN)C(=O)CN(C(=O)CN(CCCOC(C)C)C(=O)[C@H](CCCCNC(=O)CN(CCCOC(C)C)C(=O)CN(Cc1ccc(OC)cc1)C(=O)CCC(=O)c1cccs1)NC(=O)CN(CCCOC(C)C)C(=O)CN(Cc1ccc(OC)cc1)C(=O)CCC(=O)c1cccs1)C1CCCCC1)C(N)=O [PKR1-C14] (X1-[N(4-MeOBn)Gly][N((CH2)3OiPr)Gly]K(X2)[N((CH2)3OiPr)Gly][Gly(N-cHex)][Nlys][Nlys][Nme]AK(Myristoyl)-NH2) | over 25 fold | – |
